In US20030153611A1, “1,3-Diarylprop-2-en-1-ones, compositions containing them and use thereof” (AVENTIS PHARMA S.A., priority 2001, published 2003):
Counter-ions that a name gives are not always drawn.

Legend:
HDMEC = test: Inhibition of cell proliferation, HDMEC; type: cell-based; details: Homo sapiens
[1] = test system: C51 murine adenocarcinoma; test: Assessment of the tumor necrosis in vivo; details: intravenous injection, 24 hours after treatment, female BALB/c mice
From the text: Mice are bred by IFFA-CREDO (Domaine des Oncins, 69210 L'Arbresle, France) from a race obtained by Jackson Laboratories, Bar Harbor, Me., USA, or by Charles River France (76410 St Aubin les Elbeuf, France) from a race obtained by Charles River, USA. The mice initially weigh more than 18 g at the start of the test. They have free access to food (UAR reference 113, Villemoisson, 91160 Epinay sur Orge, France) and water.
The tumors used are currently transplanted in our laboratories. All these tumors are at the Frederick Cancer Research Facility (Frederick, Md., USA) in the frozen tumor deposit of the National Cancer Institute (NCl) or at the American Type Culture Collection (ATCC, Rockville, Md., USA).
The tumor transplantation techniques, the chemotherapy and the data analysis are presented in detail (Corbett et al. 1982a; Corbett et al., 1982b).
To summarize, the animals required for an experiment are assembled and implanted bilaterally on day 0 (zero).
The growth of the solid tumors develops freely up to the desired size. The mice are then treated by intravenous injection of a test compound in solution.
The sampling of tumors is usually (but not necessarily) carried out 24 hours after the treatment.
The mice are killed by […]. The implanted tumors, along with the skin covering them and the neighboring tissues, are collected and stored in 10% formaldehyde (v/v) (Carlo Erba, Val de Reuil, France).
The samples are then treated, sectioned, stained with hematoxylin, eosin and saffron yellow, and are then examined […]. The tumor necrosis (necrosis±degeneration) is assessed microscopically using a scale of magnitude from 0 to 5:
The values assigned to the tumor necrosis 24 hours after administration of the test compound correspond solely to a necrosis dependent on the product which may be differentiated with certainty from any existing necrosis arising from the experiment.
The necrosis due to the experiment was assessed on an untreated control.
The tumor model is a C51 murine adenocarcinoma. This colon tumor is a grade III mucous colon […]. It is maintained by serial subcutaneous passages every 18 days in female BALB/c mice. The experiments were carried out on female BALB/c mice.

Row | Structure (SMILES) | IC50 (HDMEC) [µM] | C51 colon tumor necrosis in vivo (grade) ([1]; 12.5 mg/kg) | C51 colon tumor necrosis in vivo (grade) ([1]; 25 mg/kg)
1 | COc1ccc(/C=C(\C)C(=O)c2cc(OC)c(OC)c(OC)c2)cc1NC(=O)[C@@H](N)CO [Example 13, (S)-2-Amino-3-hydroxypropanoic acid {2-methoxy-5-[2-methyl-3-oxo-3-(3,4,5-trimethoxyphenyl)propenyl]phenyl}amide hydrochloride] | 0.03 | Grade 5 at 12.5 (5=large, >75%) | 
2 | COc1cc(C(=O)/C(C)=C/c2ccc3c(ccn3C)c2)cc(OC)c1OC [Example 5, E-2-Methyl-3-(1-methyl-1-H-indol-5-yl)-1-(3,4,5-trimethoxyphenyl)propenone] | 0.03 |  | Grade 5 at 25 (5=large, >75%)
